Among the test systems are OVCAR-5 ovarian; SK-MEL-2 melanoma; HOP-92 NSCLC; SNB-75 CNS; SW-620 colon; ACHN renal; OVCAR-4 ovarian.
Common to all, as to assay: growth of human tumour cells (NCI), 48 h

Structures are written as SMILES.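 Cells were grown in 96-well plates and exposed to each compound for 48 hours at five concentrations; endpoints were interpolated linearly between bracketing concentrations, or set to the highest concentration if not reached. At the GI50, growth is halved. TGI: concentration producing complete growth inhibition.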

Consider `C/C(=N\NC(=S)N1CC2CCC(CC2)C1)c1ccccn1`, for which the GI50 in the test with OVCAR-5 ovarian is 0.0949 µM; with SK-MEL-2 melanoma, 0.419 µM; with HOP-92 NSCLC it was 0.0255 µM; in the test on SNB-75 CNS, 0.643 µM; in the test on SW-620 colon it was 0.033 µM; in the test on ACHN renal, 0.0347 µM. The GI50 in the test on OVCAR-4 ovarian was 0.0238 µM. Besides, the TGI with OVCAR-5 ovarian turned out to be 2.73 µM; in the test with SK-MEL-2 melanoma, 1.99 µM; with HOP-92 NSCLC it was 0.793 µM; in the test with SNB-75 CNS it was 2.07 µM; in the test on SW-620 colon, 1.57 µM; in the test with ACHN renal it was 1.52 µM. The same compound yielded a TGI in the test on OVCAR-4 ovarian of 1.1 µM.
Take `O=C(NCc1ccc(S(=O)(=O)c2cc(F)cc(F)c2)cc1)c1ccc2nccn2c1`: the GI50 in the test on OVCAR-5 ovarian was 0.331 µM; with SK-MEL-2 melanoma, 20.1 µM; with HOP-92 NSCLC it was 22.5 µM; in the test on SNB-75 CNS it was 15.3 µM; in the test on SW-620 colon, less than 0.01 µM; in the test on ACHN renal it was 21.1 µM. Besides, the GI50 in the test on OVCAR-4 ovarian is 11.3 µM. Also, the TGI with OVCAR-5 ovarian was more than 100 µM; in the test on SK-MEL-2 melanoma, more than 74.9 µM; with HOP-92 NSCLC it was more than 100 µM; in the test on SNB-75 CNS, 45.8 µM; in the test with SW-620 colon, more than 100 µM; in the test with ACHN renal, more than 100 µM. In the test with OVCAR-4 ovarian, the TGI is more than 77.3 µM.
For `COC(C(=O)[C@@H](O)[C@@H](C)O)[C@@H]1Cc2cc3cc(O[C@H]4C[C@@H](O[C@H]5C[C@@H](O)[C@H](O)C(C)O5)[C@H](O)C(C)O4)c(C)c(O)c3c(O)c2C(=O)[C@H]1O[C@H]1C[C@@H](O[C@H]2C[C@@H](O[C@H]3C[C@@H](O)[C@H](OC)C(C)O3)[C@@H](O)C(C)O2)[C@H](O)C(C)O1` (some centres not stated), the TGI is more than 33.3 µM with OVCAR-5 ovarian; 0.0392 µM in the test with SK-MEL-2 melanoma; 1.27 µM in the test on HOP-92 NSCLC; 0.23 µM with SNB-75 CNS; more than 33.3 µM in the test with SW-620 colon; more than 33.3 µM with ACHN renal. For the same compound, in the test with OVCAR-4 ovarian, the TGI was more than 26.5 µM. Moreover, the GI50 in the test with HOP-92 NSCLC is 0.0122 µM; in the test with SW-620 colon, 0.0197 µM; with ACHN renal it was 0.0831 µM; in the test on OVCAR-4 ovarian it was 0.049 µM.
As for `COc1ccc2c(c1)C(C)Cc1c(ncnc1-n1cnc3cc(C)ccc31)N2C` (configuration not stated), the GI50 was 0.294 µM in the test on OVCAR-5 ovarian; 0.187 µM with SK-MEL-2 melanoma; 0.329 µM in the test on HOP-92 NSCLC; 0.0529 µM in the test on SNB-75 CNS; 0.087 µM with SW-620 colon; 0.0688 µM in the test on ACHN renal. Besides, the GI50 with OVCAR-4 ovarian was 0.347 µM. The TGI in the test on OVCAR-5 ovarian was 26.8 µM; in the test on SK-MEL-2 melanoma it was 13.4 µM; with HOP-92 NSCLC, 15.9 µM; in the test with SNB-75 CNS, 19.9 µM; in the test on SW-620 colon, 16.1 µM; in the test on ACHN renal it was 15.3 µM. Besides, the TGI in the test on OVCAR-4 ovarian was 33.7 µM.
On to `O=C(OCC(OC(=O)c1ccccc1)C(OC(=O)c1ccccc1)C(OC(=O)c1ccccc1)c1cnn(-c2ccccc2)n1)c1ccccc1` (configuration not stated), for which the TGI in the test with OVCAR-5 ovarian, with HOP-92 NSCLC, in the test with SW-620 colon, in the test with ACHN renal and in the test with OVCAR-4 ovarian was more than 100 µM throughout.
Take `Cc1ccc(S(=O)(=O)NC(=O)NC2=NC(C)(C)N(c3ccc(Cl)c(Cl)c3)C(N)=N2)cc1`: the TGI in the test on OVCAR-5 ovarian, in the test with SK-MEL-2 melanoma, in the test with SNB-75 CNS, in the test with SW-620 colon, with ACHN renal and in the test with OVCAR-4 ovarian was more than 100 µM each time.
As to `CCN(CC)c1cc2oc3cc(N)cc(=N)c-3nc2cc1C`, the GI50 with OVCAR-5 ovarian is 2.82 µM; with SK-MEL-2 melanoma it was 2.01 µM; in the test with HOP-92 NSCLC, 20.2 µM; in the test with SNB-75 CNS it was 2.84 µM; in the test on SW-620 colon, 2.75 µM; in the test with ACHN renal, 1.69 µM. In addition, the TGI with OVCAR-5 ovarian was 7.4 µM; with SK-MEL-2 melanoma, 4.69 µM; in the test on HOP-92 NSCLC, 79.7 µM; in the test with SNB-75 CNS, 13.4 µM; with SW-620 colon it was 19.5 µM; with ACHN renal it was more than 100 µM.
Take `O=C1C(Cl)=C(Nc2ccccc2O)C(=O)N1Cc1ccccc1`: the GI50 in the test on OVCAR-5 ovarian was 18.5 µM; with SK-MEL-2 melanoma, 30.9 µM; in the test with HOP-92 NSCLC, 21.4 µM; in the test with ACHN renal, 20.6 µM; with OVCAR-4 ovarian, 43.1 µM. Besides, the TGI was 32.7 µM with OVCAR-5 ovarian; 96 µM in the test on SK-MEL-2 melanoma; 48.3 µM in the test with HOP-92 NSCLC; 55.8 µM in the test on ACHN renal; more than 100 µM in the test with OVCAR-4 ovarian.
In the case of `Nc1nc(N)c2cc(CNc3ccc(C(=O)NC(CC(=O)O)C(=O)O)c(Cl)c3)ccc2n1` (configuration not stated), the GI50 is 0.05 µM in the test on OVCAR-5 ovarian; more than 500 µM with SK-MEL-2 melanoma; 71.7 µM in the test on SNB-75 CNS; 0.05 µM in the test with SW-620 colon; 0.05 µM with ACHN renal. Also, the TGI in the test on OVCAR-5 ovarian, with SK-MEL-2 melanoma, with SNB-75 CNS, in the test on SW-620 colon, with ACHN renal and in the test on OVCAR-4 ovarian was more than 500 µM throughout.
Regarding `Clc1cc(Cl)cc(Nc2ccc3cc(OCCCN4CCOCC4)ccc3n2)c1`, the GI50 in the test with SK-MEL-2 melanoma was 2.7 µM; in the test with HOP-92 NSCLC, 1.63 µM; in the test on OVCAR-4 ovarian it was 3.44 µM. In addition, the TGI with SK-MEL-2 melanoma is 6.97 µM; with HOP-92 NSCLC it was 5.01 µM; with OVCAR-4 ovarian, more than 100 µM.
As to `Nc1ccc2[nH]cc(CCC(=O)O)c2c1`, the TGI in the test with OVCAR-5 ovarian, in the test with SK-MEL-2 melanoma, in the test with SNB-75 CNS, in the test with SW-620 colon, in the test with ACHN renal and with OVCAR-4 ovarian was more than 100 µM throughout.
In the case of `CN1CCN(c2ccc(Nc3ncc4cc(C#N)c(=O)n(C5CCCC5)c4n3)cc2)CC1`, the GI50 in the test with OVCAR-5 ovarian is 0.942 µM; in the test with SK-MEL-2 melanoma it was 4.87 µM; in the test on SNB-75 CNS, 0.336 µM; with SW-620 colon it was 0.451 µM; in the test on ACHN renal, 0.309 µM; with OVCAR-4 ovarian, 3.08 µM. Further, the TGI is more than 100 µM in the test on OVCAR-5 ovarian; more than 62.8 µM with SK-MEL-2 melanoma; 3.8 µM in the test on SNB-75 CNS; more than 100 µM in the test on SW-620 colon; 13.5 µM in the test on ACHN renal; more than 100 µM in the test with OVCAR-4 ovarian.
As to `Clc1ccc(N=CNc2ccc(-c3nc4ccccc4o3)cc2)cc1`, the GI50 in the test on OVCAR-5 ovarian was 33.3 µM; with SK-MEL-2 melanoma, 30 µM; in the test with HOP-92 NSCLC, 57.1 µM; with SW-620 colon, 2.9 µM; in the test on ACHN renal, 24.4 µM. Further, the TGI in the test on OVCAR-5 ovarian was 99.6 µM; in the test with SK-MEL-2 melanoma, more than 100 µM; in the test with HOP-92 NSCLC, more than 100 µM; in the test with SW-620 colon, 8.16 µM; in the test on ACHN renal, more than 100 µM.
Take `CC(C)C1=C2CCC3(C)C(CCC4C5C6OCC5(CCC6(C)C)CCC43C)C2(C)CC1` (configuration not stated): the TGI in the test on OVCAR-5 ovarian is more than 100 µM; in the test with SK-MEL-2 melanoma, 81.7 µM; in the test on HOP-92 NSCLC, 40.8 µM; in the test with SW-620 colon, 50.8 µM; in the test with ACHN renal it was 35.9 µM; in the test with OVCAR-4 ovarian it was 77.5 µM.
